From patent US11993594B2, “IRAK inhibitors and method for making and using” (Rigel Pharmaceuticals, Inc., priority 2016, dated 2024)
Where two headings read alike, the source gives them in different places.

How the values were obtained:
[1] = test system: LPS induced IL-23 (p19/p40) in DC cells; experiment: IL23-p19 ELISA, dendritic (DC) cells differentiated from human PBMC, LPS stimulated; type: cell-based; conditions: LPS 1 μg/ml, 18 hours, 10 pt
Description: Compound Screening Using DC Cells
Human PBMC cells (400 million) obtained from the vendor were transferred into a T-175 flask containing 15 ml RPMI media (10% FBS) and incubate for 2 hours at 37° C. After 2 hours, the media including floating cells was aspirated out carefully and 12 ml of fresh RPMI media (10% FBS) containing GMCSF (100 ng/ml) and IL4 (20 ng/ml) was added, and the flask was kept in a 37° C. incubator for 7 days.
After 3 days, fresh GMCSF (100 ng/ml) and IL4 (20 ng/ml) were added to the flask and the incubation continued. After 7 days, the fully differentiated cells were harvested by spinning down (1200 rpm/5 min) and aspirating the media. The cells were suspended in fresh RPMI media (10% FBS) containing 50 ng/ml IFNγ (1000 U/ml) and then plated (50K/well in 100 μl) onto a white clear bottom 96 well plate and left in a 37° C. incubator for 24 hours.
After 24 hours incubation, 100 μl of RPMI media was added containing 2× concentrated test compound per well to the above cell-culture media (final concentration becomes 1×) and the plates were pre-incubated for 1 hour at 37° C. before stimulating with LPS.
After 1 hour compound pre-incubation, 10 μl per well of 20× concentrated LPS solution in RPMI media was added to give a final concentration of 1 μg/ml. The mixture was shaken and incubated the plates at 37° C. for an additional 18 hours.
155 μl of the supernatant was harvested from each well carefully (without the tip touching the bottom of the well) and to the remaining 50 μl/well of the cell culture plate was added 50 μl of Cell Titer Glo reagent. The mixture was incubated for 1-2 minutes on a shaker and the plate was read for luminescence intensity to determine the compound cytotoxicity. The cell culture supernatant collected above was used to carry out IL23 ELISA (65 μl—Supernatant) and IL10 ELISA (90 μl—Supernatant) as described below.
Human IL-23 (p19/p40) ELISA Protocol (e-Biosciences)
To 10.5 ml PBS add 50 μl of anti-IL23 (p19) was added capture antibody (2.5 μg/ml). The mixture was mixed well and 100 μl of the coating solution was added to each well of the 96 well white plates from Pierce. The wells were covered and incubated overnight at 4° C.
The anti-IL23 (p19)-antibody-coated plates were washed 2× using TBST (use plate washer) and blocked using 200 μl of 0.5% Casein for 1.5 to 2 hours at room temperature with shaking.
The plates were washed 2× using TBST and the supernatant was transferred (65 μl/well) to the above pre-blocked/IL23(p19)-antibody-coated 96 well plate, and incubated at room temperature for 1.5 hours with shaking.
The plates were washed 4× using TBST (plate washer) and 100 μl/well detection antibody solution prepared from 2 μl of biotin labeled anti-IL-12 (p40/p70) antibody in 11 ml 1% BSA/PBS solution (1-5000 dilution) was added. The plates were incubated for 1 hour with shaking at Room temperature.
Again, the plates were washed 4× with TBST and 100 μl of HRP labeled Streptavidin (R&D Systems) solution (10 μl/10 ml 1% BSA solution) was added, and the plates were incubated at room temperature for another 45 minutes with shaking.
After 45 minutes, the plates were washed with TBST 4× and 100 μl/well Super Signal ELISA Pico Chemiluminescent Substrate from Pierce (3.5 ml A+3.5 ml B+3.5 ml MQ water) was added. The plates were shaken for 1-2 minutes then read on a plate reader. […]

[2] = test system: LPS Induced IL23p19 in THP-1 Cells; experiment: LPS Induced IL23p19 in THP-1 Cells (with IFNγ Primed) Assay; type: cell-based, human; conditions: THP-1 cells primed with IFNγ 50 ng/mL, LPS 1 ug/mL, 18 hours, 10 pt, read-out: IL23-p19 ELISA, THP1-IFNγ, LPS, 10 pt EC50
Source text: LPS Induced IL23p19 in THP-1 Cells (with IFNγ Primed) Assay
THP-1 Cells (ATCC, Cat #TIB-202), Dimethyl Sulfoxide (DMSO) (Sigma-Aldrich, Cat #D2650), RPMI 1640 (Cellgro, Cat #10-040-CM), Fetal Bovine Serum (Sigma, Cat #F4135), Albumin From Bovine Serum (BSA) (Sigma-Aldrich, Cat #A7906), LPS (Serotype K-235, Sigma, Product Number L 2143), IFNγ (Peprotech, Cat #300-02) Capture antibody: Human IL-23p19 ELISA (e-Bioscience, Cat. #14-7238-85), Detection antibody: Primary Mouse Biotinylated anti-human IL-12(p40/p70) (e-Bioscience, Cat. #13-7129-85), Secondary HRP-conjugated Streptavidin (R&D Systems, Cat #DY998), 1×PBST Washing Buffer (PBS-Tween tablet) (VWR International, Cat #80058-558), ELISA Blocking Buffer (PBS with 1% BSA), ELISA Dilution Buffer (PBS with 1% BSA), 384 Well Flat-Bottom, MaxiSorp Black Immuno Plates (Thermo Scientific, Cat #12-565-346), 384 Well Flat-Bottom, White Tissue Culture Plates (Thermo Scientific, Cat #12-565-343), Super Signal ELISA Pico Chemiluminescent Substrate (Thermo Scientific, Cat #37070), Cell Titer Glo reagent (Promega, Cat #G7573), Positive control, IKK2VI inhibitor (Calbiochem, Cat #401483), AquaMax 4000 plate washer (Molecular Devices), Luminometer, Wallac Victor2 1420 Multilabel Counter.
On day 1, 50K/well THP-1 cells were seeded and primed with IFNγ (50 ng/mL) in 384-well plates for about 18 hours in RPMI media with 10% FBS. On day 2, the compound was serially diluted in DMSO from 5 mM in 3-fold dilutions, and then diluted 1:125 in RPMI media with 10% FBS. 50 μL/well 2× compound was added to 50 μL/well THP-1 cells (with IFNγ primed) in duplicate in 384 well tissue culture plates. The cells were pre-incubated with compound for 1 hour at 37° C., 5% CO2 before addition of 10 μL/well 11×LPS to give a final concentration of 1 ug/mL LPS. Day 3, after stimulation for 18 hours at 37° C., 5% CO2, the assay plate was centrifuged and 70 μL/well supernatant was harvested. IL-23p19 protein in 70 µL/well of supernatant was measured by sandwich ELISA, and 25 μl/well Cell Titer Glo reagent was added to the remaining cells to measure compound toxicity.
Human IL-23p19 Sandwich ELISA:
Maxisorp immuno ELISA plates were pre-coated with 25 μL/well of anti-IL-23p19 capture antibody (2.5 ug/mL) in PBS overnight at room temperature. After washing with 1×PBST, the plates were blocked using 100 μL/well of 1% BSA in PBS for 2 hours at room temperature. The plates were washed three times with 1×PBST and 70 μL/well supernatant were added. The plates were incubated at room temperature for 2 hours with shaking and washed three times with 1×PBST. 25 μL/well of biotin labeled anti-IL-12(p40/p70) detection antibody (100 ng/mL) in PBS with 1% BSA was added and the plates were incubated at room temperature for 2 hours with shaking. After washing three times with 1×PBST, 25 μL/well of streptavidin-HRP (1:200) in PBS with 1% BSA was added and the plates were incubated at room temperature for 20 minutes with shaking. The plates were washed three times with 1×PBST and 25 μL/well of Super Signal ELISA Pico Chemiluminescent Substrate were added. The plates were read with a luminometer, and the chemiluminescence values were entered into Athena (Rigel) for curve fitting, EC50 calculation, and database storage. […]

SMILES	EC50 ([1]; Table 1, IFNγ 50 ng/ml)	EC50 ([2]; Homo sapiens, Table 1)	EC50 ([1]; Table 2, IFNγ 50 ng/ml)	EC50 ([2]; Table 1)	EC50 ([2]; Table 2)	EC50 ([2]; Table 3)
O=C(Nc1cn([C@H]2CC[C@H](N3CCOCC3)CC2)nc1-c1ncccn1)c1coc(-c2cn[nH]c2)n1 [Compound I-2, N-(1-((1r,4r)-4-morpholinocyclohexyl)-3-(pyrimidin-2-yl)-1H-pyrazol-4-yl)-2-(1H-pyrazol-4-yl)oxazole-4-carboxamide]	84.2 nM		84.2 nM	34.3 nM	34.3 nM	
O=C(Nc1cn([C@H]2CC[C@H](N3CCOCC3)CC2)nc1-c1cccc(C(F)F)n1)c1coc(-c2cn[nH]c2)n1 [Compound I-4, N-(3-(6-(difluoromethyl)pyridin-2-yl)-1-((1r,4r)-4-morpholinocyclohexyl)-1H-pyrazol-4-yl)-2-(1H-pyrazol-4-yl)oxazole-4-carboxamide]	20.1 nM		20.1 nM	6.3 nM	6.3 nM	
C[C@@H]1CN(C2CCC(n3cc(NC(=O)c4coc(-c5cn[nH]c5)n4)c(-c4cccc(C(F)F)n4)n3)CC2)C[C@H](C)O1 (stereo partly drawn) [Compound I-5, N-(3-(6-(difluoromethyl)pyridin-2-yl)-1-((1R,4r)-4-((2R,6S)-2,6-dimethylmorpholino)cyclohexyl)-1H-pyrazol-4-yl)-2-(1H-pyrazol-4-yl)oxazole-4-carboxamide]	10.2 nM		10.2 nM	12 nM	12 nM	
O=C(Nc1cn([C@H]2CC[C@H](N3CCOCC3)CC2)nc1-c1nc(C(F)(F)F)ccc1F)c1coc(-c2cn[nH]c2)n1 [Compound I-7, N-(3-(3-fluoro-6-(trifluoromethyl)pyridin-2-yl)-1-((1r,4r)-4-morpholinocyclohexyl)-1H-pyrazol-4-yl)-2-(1H-pyrazol-4-yl)oxazole-4-carboxamide]	75.7 nM		75.7 nM	28 nM	28 nM	
Cn1cc(NC(=O)c2coc(-c3cnn(CC4CC4)c3)n2)c(-c2ccccn2)n1 [Compound I-19, 2-(1-(cyclopropylmethyl)-1H-pyrazol-4-yl)-N-(1-methyl-3-(pyridin-2-yl)-1H-pyrazol-4-yl)oxazole-4-carboxamide]						20300 nM
O=C(Nc1cn([C@H]2CC[C@H](N3CCOCC3)CC2)nc1-c1nc(F)ccc1F)c1coc(-c2cn[nH]c2)n1 [Compound I-37, N-(3-(3,6-difluoropyridin-2-yl)-1-((1r,4r)-4-morpholinocyclohexyl)-1H-pyrazol-4-yl)-2-(1H-pyrazol-4-yl)oxazole-4-carboxamide]		73.3 nM				

The next lines start with the values.

EC50 ([1]; Table 1, IFNγ 50 ng/ml)	EC50 ([2]; Homo sapiens, Table 1)	EC50 ([1]; Table 2, IFNγ 50 ng/ml)	EC50 ([2]; Table 1)	EC50 ([2]; Table 2)	EC50 ([2]; Table 3)	SMILES
33.4 nM	4.8 nM					CCO[C@H]1CC[C@H](n2cc(NC(=O)c3coc(-c4cn[nH]c4)n3)c(-c3cnccn3)n2)CC1 [Compound I-1, N-(1-((1r,4r)-4-ethoxycyclohexyl)-3-(pyrazin-2-yl)-1H-pyrazol-4-yl)-2-(1H-pyrazol-4-yl)oxazole-4-carboxamide]
3.3 nM		3.3 nM	8.9 nM	8.9 nM		CCO[C@H]1CC[C@H](n2cc(NC(=O)c3coc(-c4cn[nH]c4)n3)c(-c3ncccn3)n2)CC1 [Compound I-3, N-(1-((1r,4r)-4-ethoxycyclohexyl)-3-(pyrimidin-2-yl)-1H-pyrazol-4-yl)-2-(1H-pyrazol-4-yl)oxazole-4-carboxamide]
			19.6 nM	19.6 nM		CCO[C@H]1CC[C@H](n2cc(NC(=O)c3coc(-c4cn[nH]c4)n3)c(-c3ccncn3)n2)CC1 [Compound I-6, N-(1-((1r,4r)-4-ethoxycyclohexyl)-3-(pyrimidin-4-yl)-1H-pyrazol-4-yl)-2-(1H-pyrazol-4-yl)oxazole-4-carboxamide]
7640 nM		7640 nM	187 nM	187 nM		CCOC1CCC(n2cc(NC(=O)c3coc(-c4cnn(COP(=O)(O)O)c4)n3)c(-c3nc(F)ccc3F)n2)CC1 (centres unmarked) [Compound I-8, sodium (4-(4-((3-(3,6-difluoropyridin-2-yl)-1-((1r,4r)-4-ethoxycyclohexyl)-1H-pyrazol-4-yl)carbamoyl)oxazol-2-yl)-1H-pyrazol-1-yl)methyl phosphate]
			9120 nM	9120 nM		CCOC1CCC(n2ncc(NC(=O)c3coc(-c4cn[nH]c4)n3)c2-c2nc(F)ccc2F)CC1 [Compound I-14, N-(5-(3,6-difluoropyridin-2-yl)-1-((1r,4R)-4-ethoxycyclohexyl)-1H-pyrazol-4-yl)-2-(1H-pyrazol-4-yl)oxazole-4-carboxamide]
